The term EC50 denotes the concentration that produces a half-maximal response.

The structures appear in SMILES notation.

One data set addresses T1, Gag precursor protein (Human immunodeficiency virus type 1 group M subtype B, UniProt P04591).
T1 construct: human immunodeficiency virus type 1 Gag protein lacking the p6 domain; made in house
The experiment in a line: Secondary screen: disruption of in vitro assembly of Gag precursor protein into virus-like particles. Format: biochemical. The conditions noted are these: for disrupted viral assembly: artificial viral particles from recombinant Gag protein and tRNA; for EC50: in vitro, assay not given. The source says:
A secondary screen was used to identify small molecules that disrupt in vitro assembly of Gag precursor protein into virus-like particles. Artificial viral particles were assembled from recombinant Gag protein and tRNA as previously described (see, e.g., Campbell & Rein, “In vitro assembly properties of human immunodeficiency virus type 1 Gag protein lacking the p6 domain” J. Virol. 73: 2270-2279, 1999). […]

The next data set deals with T2, NC-p7 protein (Human immunodeficiency virus type 1 group M subtype B, UniProt P04591).
T2 construct: nucleocapsid p7 (NCp7) protein portion of the polyprotein
Put plainly: High throughput screen: disruption of association of viral NC-p7 protein with a biotinylated 28 base oligonucleotide. In kind it is binding, HIV-1. The settings on record: 10 μM of test compound; hit threshold 100% inhibition. The procedure:
A high throughput screen was used to detect small molecules that disrupted the association of viral NC-p7 protein with an oligonucleotide. The assay was performed using a Tomtec Quadra robotic system. NC protein was immobilized on Costar (Corning, N.Y.) high-bind polystyrene 96 well plates by incubating 100 μl 250 nM NC-p7 in phosphate buffered saline (PBS)/10 μM zinc chloride/10 mM β-mercaptoethanol/0.05% Tween overnight at 4° C. 200 μl of 2% BSA in PBS/10 μM zinc chloride/10 mM β-mercaptoethanol/0.05% Tween was added and incubated at room temperature for 1-2 hours in order to block the plates. The plates were then washed 2 times with 200 μl PBS/10 μM zinc chloride/10 mM β-mercaptoethanol/0.05% Tween using a Titertek M96V plate washer and stored overnight at 4° C. 5 nM biotinylated 28 base oligonucleotide (5′ […] 3′) in PBS/10 μM zinc chloride/10 mM β-mercaptoethanot/0.05% Tween was added to each well followed by 10 μM of test compound (in 20% dimethyl sulphoxide) from the Diversity Set and allowed to incubate at room temperature for 1 hour. Plates were then washed 3 times with 200 μl PBS/0.05% Tween. Binding of the biotinylated 28 mer was measured by adding 100 μl 1:20000 dilution of nutravidin-horse radish peroxidase (stock 0.8 mg/ml, from Pierce Chemical Co. Rockford, Ill.) and incubating at room temperature for 1 hour. The plates were washed 3 times with 200 μl PBS/0.05% Tween. Plates were developed by adding 100 μl of Supersignal (Pierce Chemical Co. Rockford, Ill.) and bioluminescence was measured in a Wallac Victor plate reader. […] The hit threshold was set at 100% inhibition.

The next data set has as its system HIV. The experiment in a line: XTT-cytoprotection assay, cell based anti-HIV screening in CEM-SS cells. The conditions noted are these: for XTT: protection from HIV infection. An excerpt:
One exemplary means to determine antiviral activity is with CEM-SS cells and virus (e.g., HIV-1RF) (MOI=0.01) using the XTT (2,3-bis[2-methoxy- 4-nitro-5-sulfophenyl]-5- [(phenylamino)carbonyl]-2H-tetrazolium hydroxide) cytoprotection assay (see, e.g., Weislow, et al, J. Natl. Canc. Inst. 81: 577-586, 1989; Rice PNAS 90:9721-9724, 1993; and Rice Antimicrob. Agents Chemother. 41:419-426, 1997). Briefly, cells are infected with HIV-1RF (or other virus to be tested) in the presence of various dilutions of test compounds (antimony or diphenyl compounds and controls). The cultures are incubated for seven days. […] The cell death is measured by XTT dye reduction. XTT is a soluble tetrazolium dye that measures mitochondrial energy output, similar to MTT. Positive controls using dextran sulfate (an attachment inhibitor) or 3′-Azido -2′-3′-dideoxythymidine, AZT (a reverse transcriptase inhibitor) are added to each assay. Individual assays are done in duplicate using a sister plate method.
Effective antiviral concentrations providing 50% cytoprotection (EC50), and cellular growth inhibitory concentrations causing 50% cytotoxicity (IC50) are calculated.
Cell based anti-HIV screening was performed in CEM-SS cells, using an XTT-cytoprotection assay (see, e.g., Weislow, et al, J. Natl. Canc. Inst. 81: 577-586, 1989; Rice PNAS 90:9721-9724, 1993; and Rice Antimicrob. Agents Chemother. 41:419-426, 1997)).

The test system of the next data set is p24. The settings on record: unit not given.
The next data set can be described thus: Tolerability in mice. In kind it is in vivo.
In a further data set the test system is CEM-SS Leukemia cells. Put plainly: Uptake of radio-labelled compound in cells. Format: in vitro ADME.

As for `O=S(=O)(O)c1cc[c]([Sb](=[O])([OH])[OH])cc1` [NSC 13746], on Gag precursor protein, the disrupted viral assembly result is recorded as “disrupted viral assembly” and the response was half-maximal at 10 µM (EC50). Besides, the “Active compounds identified in high throughput screen (disruption of NC-p7/oligonucleotide association)” value (shortened to “Active compounds identified”) at NC-p7 protein is “Active”. For the same compound, in the data set with HIV, the “activity in the cell based assay (XTT cytoprotection ranking)” value (“activity in the cell based assay” below) is recorded as “active” and the XTT result was “A (active (80-100% protection from HIV infection))”.

`O=C(O)c1cc[c]([Sb](=[O])([OH])[OH])cc1[N+](=O)[O-]` [NSC 13755]: at Gag precursor protein, the disrupted viral assembly result is listed as “disrupted viral assembly” and it took 6.15 µM to reach a half-maximal effect (EC50). For the same compound, the p24 assay in the data set with p24 was found to be 0.21. Moreover, on NC-p7 protein, the “Active compounds identified” value is “Active”. In the data set on HIV, the “activity in the cell based assay” value is listed as “active” and the XTT entry is “A (active (80-100% protection from HIV infection))”.

Consider `O=C(O)c1ccc[c]([Sb](=[O])([OH])[OH])c1` [NSC 13759], for which, on Gag precursor protein, the disrupted viral assembly entry is “disrupted viral assembly” and it took 1.5 µM to reach a half-maximal effect (EC50). The p24 assay in the data set on p24 was 0.19. Further, in the data set with HIV, the “activity in the cell based assay” value is on record as “active” and the XTT result is given as “A (active (80-100% protection from HIV infection))”.

As to `O=C(O)c1cc[c]([Sb](=[O])([OH])[OH])cc1` [NSC 13760], at Gag precursor protein, the disrupted viral assembly entry was “disrupted viral assembly” and the concentration for a half-maximal effect (EC50) stood at 1.15 µM. For the same compound, in the data set with p24, the p24 assay stood at 0.29. For the same compound, in the data set with HIV, the “activity in the cell based assay” value was “active” and the XTT entry is listed as “A (active (80-100% protection from HIV infection))”.

Consider `NC(=O)c1ccc[c]([Sb](=[O])([OH])[OH])c1` [NSC 13765], for which, on Gag precursor protein, the disrupted viral assembly entry was “disrupted viral assembly” and the concentration for a half-maximal effect (EC50) came out at 3.75 µM. Also, the p24 assay with p24 is 0.41. Moreover, in the data set with HIV, the “activity in the cell based assay” value was “active” and the XTT result is on record as “A (active (80-100% protection from HIV infection))”.

Regarding `COC(=O)c1ccc[c]([Sb](=[O])([OH])[OH])c1` [NSC 13771], at Gag precursor protein, the disrupted viral assembly entry is listed as “disrupted viral assembly” and the 50% effective concentration (EC50) was 5.5 µM. Further, the p24 assay in the data set on p24 is 0.2. Further, the XTT result in the data set with HIV is “I (inactive (0-49% protection))”.

`O=C(O)/C=C/c1ccc[c]([Sb](=[O])([OH])[OH])c1` [NSC 13778]: on Gag precursor protein, the disrupted viral assembly entry is on record as “disrupted viral assembly” and the midpoint of the response, the EC50, lay at 3.8 µM. In the data set “Tolerability in mice”, the tolerability in vivo entry is reported as “tolerated in vivo”. The compound also displayed a p24 assay in the data set on p24 of 0.11. Besides, on NC-p7 protein, the “Active compounds identified” value was “Active”. The “uptake of the compound in cells” value in the data set with CEM-SS Leukemia cells is listed as “energy-dependent uptake”. For the same compound, in the data set with HIV, the “activity in the cell based assay” value is recorded as “active” and the XTT result is on record as “A (active (80-100% protection from HIV infection))”.

Consider `O=C(NCCO)c1ccc[c]([Sb](=[O])([OH])[OH])c1` [NSC 13782], for which the “activity in the cell based assay” value with HIV is “exhibited activity”.

As to `CCOC(=O)CCCc1cc[c]([Sb](=[O])([OH])[OH])cc1` [NSC 13793], on Gag precursor protein, the disrupted viral assembly result is listed as “disrupted viral assembly” and the EC50 came out at 3.25 µM. The same compound returned a p24 assay in the data set with p24 of 0.14. Moreover, the XTT entry with HIV was “I (inactive (0-49% protection))”.

As for `O=C(O)c1ccc(C(=O)c2ccccc2C(=O)O)cc1C(=O)O` [NSC 28620], the disrupted viral assembly result at Gag precursor protein is reported as “disrupted viral assembly”. The “Active compounds identified” value at NC-p7 protein is listed as “Active”. Moreover, the “activity in the cell based assay” value in the data set with HIV was “active”.

The values are drawn from patent US7572828B2, “Identification of anti-HIV compounds inhibiting virus assembly and binding of nucleocapsid protein to nucleic acid” (The United States of America as represented by the …, priority 2002, dated 2009).
